≈ marks a conversion by molar mass, not a printed value. Calls of active or inactive are those of the source. The calls are words filed in the database; no cut-off is given here. Starred links: 1 amine or outer side, 2 acyl side, 3 side chain; linkers in the order of their positions; H or OH if unused. Positions of bridges follow the written chain, without caps; N, C: chain ends. Non-standard residues stand in square brackets, D forms with d. Residues, ends and D or L forms follow the SMILES beside them. X1 = O=C([C@H](CCCCNCC=[*:3])N[*:1])[*:2]
What was measured:
Staphylococcus aureus [1] = experiment: Antibacterial activity against methicillin-resistant Staphylococcus aureus assessed as inhibition of bacterial growth incubated for 16 hrs by broth microdilution method; format: functional
Staphylococcus aureus [2] = experiment: Antibacterial activity against methicillin-resistant Staphylococcus aureus BNCC 186335 assessed as inhibition of bacterial growth incubated for 4 hrs in presence of 25% plasma by broth microdilution method; format: functional
Pseudomonas aeruginosa [3] = experiment: Antibacterial activity against Pseudomonas aeruginosa BNCC 125486 assessed as inhibition of bacterial growth incubated for 16 hrs by broth microdilution method; format: functional
Staphylococcus aureus [4] = experiment: Antibacterial activity against Staphylococcus aureus BNCC 186335 assessed as inhibition of bacterial growth incubated for 16 hrs by broth microdilution method; format: functional
Erythrocyte = experiment: Hemolytic activity against human RBC assessed as concentration required to cause 10% hemolysis; format: toxicity, cell-based
Escherichia coli [5] = experiment: Antibacterial activity against cephalosporin-resistant Escherichia coli BNCC 133264 assessed as inhibition of bacterial growth incubated for 16 hrs by broth microdilution method; format: functional
HEK-293T [6] = experiment: Cytotoxicity against human HEK293T cells assessed as cell survival rate at 256 ug/ml incubated for 24 hrs by MTT assay; format: toxicity, cell-based; conditions: dose 256 µg/ml
Escherichia coli [7] = experiment: Antibacterial activity against Escherichia coli BNCC 133264 assessed as inhibition of bacterial growth incubated for 16 hrs by broth microdilution method; format: functional
Listeria monocytogenes = experiment: Antibacterial activity against Listeria monocytogenes assessed as inhibition of bacterial growth incubated for 16 hrs by broth microdilution method; format: functional
HEK-293T [8] = experiment: Cytotoxicity against human HEK293T cells assessed as cell survival rate at 8 to 128 Ug/ml incubated for 24 hrs by MTT assay relative to control; format: toxicity, cell-based; conditions: dose 8-128 µg/ml
Escherichia coli [9] = experiment: Antibacterial activity against multidrug-resistant Escherichia coli BNCC 133264 assessed as inhibition of bacterial growth incubated for 16 hrs by broth microdilution method; format: functional
[10] = Stability in human plasma assessed as half life measured after 24 hrs by HPLC analysis; format: ADME, cell-free
Cell membrane [11] = experiment: Induction of membrane damage in multidrug-resistant Acinetobacter baumannii assessed as concentration of stained cells incubated for 2 hrs by propidium iodide staining based flow cytometer assay; format: subcellular; conditions: dose 16.0 µg/ml, DDE = dose-dependent effect
Klebsiella pneumoniae = experiment: Antibacterial activity against multidrug-resistant Klebsiella pneumoniae assessed as inhibition of bacterial growth incubated for 16 hrs by broth microdilution method; format: functional
Enterococcus faecium = experiment: Antibacterial activity against multidrug-resistant Enterococcus faecium assessed as inhibition of bacterial growth incubated for 16 hrs by broth microdilution method; format: functional
Staphylococcus aureus [12] = experiment: Antibacterial activity against methicillin-resistant Staphylococcus aureus BNCC 186335 infected in mouse C57BL/6 assessed as reduction in intracellular bacterial burden in lung at 2 mg/kg ,ip incubated for 24 hrs; format: functional, organism-based
Pseudomonas aeruginosa [13] = experiment: Antibacterial activity against multidrug-resistant Pseudomonas aeruginosa BNCC 125486 assessed as inhibition of bacterial growth incubated for 16 hrs by broth microdilution method; format: functional
Staphylococcus aureus [14] = experiment: Antibacterial activity against methicillin-resistant Staphylococcus aureus BNCC 186335 infected in mouse C57BL/6 assessed as reduction in intracellular bacterial burden in spleen at 2 mg/kg ,ip incubated for 24 hrs; format: functional, organism-based
Staphylococcus aureus [15] = experiment: Antibacterial activity against multidrug-resistant Staphylococcus aureus BNCC 186335 assessed as inhibition of bacterial growth incubated for 16 hrs by broth microdilution method; format: functional
Acinetobacter baumannii = experiment: Antibacterial activity against multidrug-resistant Acinetobacter baumannii assessed as inhibition of bacterial growth incubated for 16 hrs by broth microdilution method; format: functional
Staphylococcus aureus [16] = experiment: Antibacterial activity against methicillin-resistant Staphylococcus aureus BNCC 186335 infected in mouse C57BL/6 assessed as reduction in intracellular bacterial burden in kidney at 2 mg/kg ,ip incubated for 24 hrs; format: functional, organism-based
Cell membrane [17] = experiment: Induction of membrane damage in methicillin-resistant Staphylococcus aureus BNCC 186335 assessed as concentration of stained cells incubated for 2 hrs by propidium iodide staining based flow cytometer assay; format: subcellular
Staphylococcus aureus [18] = experiment: Antibacterial activity against methicillin-resistant Staphylococcus aureus BNCC 186335 infected in mouse C57BL/6 assessed as reduction in intracellular bacterial burden in liver at 2 mg/kg ,ip incubated for 24 hrs; format: functional, organism-based

| Structure (SMILES) | MIC (Staphylococcus aureus [1]) [µg/mL] | MIC (Pseudomonas aeruginosa [3]) [µg/mL] | MIC (Staphylococcus aureus [4]) [µg/mL] | MHC (Erythrocyte) [µg/mL] | MIC (Escherichia coli [5]) [µg/mL] | Activity (HEK-293T [6]) | MIC (Escherichia coli [7]) [µg/mL] | MIC (Listeria monocytogenes) [µg/mL] | Activity (HEK-293T [8]) | also measured |
| --- | --- | --- | --- | --- | --- | --- | --- | --- | --- | --- |
| CC(C)[C@H](N)C(=O)N[C@H]1CCCCNCC#CCNCCCC[C@@H](C(=O)N[C@@H](Cc2ccccc2)C(=O)N[C@@H](Cc2ccccc2)C(=O)N[C@@H](CCCNC(=N)N)C(=O)N[C@@H](CCCCN)C(=O)N[C@@H](Cc2ccccc2)C(=O)N[C@@H](CCCCN)C(=O)N[C@@H](CCCCN)C(=O)N[C@@H](Cc2ccccc2)C(=O)N[C@H](C(N)=O)C(C)C)NC(=O)[C@H](CCCCN)NC(=O)[C@H](Cc2ccccc2)NC(=O)[C@H](CCCNC(=N)N)NC1=O | 8 (≈ 3.84 µM) | 16 (≈ 7.68 µM) | 4 (≈ 1.92 µM) | > 128 | 16 (≈ 7.68 µM) | Toxic | 4 (≈ 1.92 µM) | 8 (≈ 3.84 µM) |  | MIC (Staphylococcus aureus [2]): 128 µg/mL |
| CC[C@H](C)[C@H](NC(=O)[C@@H]1CCCCNC/C=C/CNCCCC[C@H](NC(=O)[C@@H]2CCCN2)C(=O)N[C@@H]([C@@H](C)CC)C(=O)N[C@@H](CC(C)C)C(=O)N[C@@H](CC(N)=O)C(=O)N1)C(=O)N[C@@H](CC(C)C)C(=O)NCC(=O)N[C@@H](CCCCN)C(=O)N[C@H](C(=O)N[C@@H](CC(C)C)C(=O)N[C@@H](CCCNC(=N)N)C(=O)N[C@@H](CC(C)C)C(=O)N[C@@H](C)C(=O)N[C@@H](C)C(=O)N[C@@H](C)C(=O)N[C@@H](Cc1ccccc1)C(=O)N[C@@H](CCCCN)C(N)=O)[C@@H](C)CC (H-P[X1]ILN[X1]ILGKILRLAAAFK-NH2; staple (E) 2-6) | 4 (≈ 1.85 µM) | 128 (≈ 59.3 µM) | 4 (≈ 1.85 µM) | 16 | 16 (≈ 7.41 µM) |  | 16 (≈ 7.41 µM) | 4 (≈ 1.85 µM) | Toxic |  |
| CC[C@H](C)[C@H](NC(=O)[C@@H]1CCCCNC/C=C/CNCCCC[C@H](NC(=O)[C@H](CC(C)C)NC(=O)[C@@H](NC(=O)[C@H](CO)NC(=O)CNC(=O)[C@H](Cc2ccccc2)NC(=O)[C@@H](N)Cc2ccccc2)C(C)C)C(=O)N[C@@H](CC(C)C)C(=O)N[C@@H]([C@@H](C)CC)C(=O)N2CCC[C@H]2C(=O)N1)C(=O)N[C@@H](CC(C)C)C(N)=O (H-FFGSVL[X1]LIP[X1]IL-NH2; staple (E) 7-11) | 4 (≈ 2.62 µM) | > 128 | 4 (≈ 2.62 µM) | 32 | 128 (≈ 83.9 µM) |  | 64 (≈ 41.9 µM) | 4 (≈ 2.62 µM) | Toxic |  |
| CC(C)[C@H](N)C(=O)N[C@@H](CCCCN)C(=O)N[C@@H](CCCNC(=N)N)C(=O)N[C@@H](Cc1ccccc1)C(=O)N[C@@H](CCCCN)C(=O)N[C@@H](CCCCN)C(=O)N[C@@H](Cc1ccccc1)C(=O)N[C@@H](Cc1ccccc1)C(=O)N[C@@H](CCCNC(=N)N)C(=O)N[C@@H](CCCCN)C(=O)N[C@@H](Cc1ccccc1)C(=O)N[C@@H](CCCCN)C(=O)N[C@@H](CCCCN)C(=O)N[C@@H](Cc1ccccc1)C(=O)N[C@H](C(N)=O)C(C)C (H-VKRFKKFFRKFKKFV-NH2) | 8 (≈ 3.94 µM) | 8 (≈ 3.94 µM) | 4 (≈ 1.97 µM) | > 128 | 16 (≈ 7.87 µM) | Toxic | 2 (≈ 0.984 µM) | 16 (≈ 7.87 µM) |  | MIC (Escherichia coli [9]): 8 µg/mL (≈ 3.94 µM); half-life [10]: 2.5 h; Activity (Cell membrane [11]): Dde; MIC (Klebsiella pneumoniae): 128 µg/mL (≈ 63 µM); MIC (Enterococcus faecium): 8 µg/mL (≈ 3.94 µM); Activity (Staphylococcus aureus [12]): Active; MIC (Pseudomonas aeruginosa [13]): 4 µg/mL (≈ 1.97 µM); Activity (Staphylococcus aureus [14]): Active; MIC (Staphylococcus aureus [15]): 32 µg/mL (≈ 15.7 µM); MIC (Acinetobacter baumannii): 4 µg/mL (≈ 1.97 µM); Activity (Staphylococcus aureus [16]): Active; Activity (Cell membrane [17]): 11%; Activity (Staphylococcus aureus [18]): Active |

From ChEMBL document CHEMBL5154678, “Lysine Stapling Screening Provides Stable and Low Toxic Cationic Antimicrobial Peptides Combating Multidrug-Resistant Bacteria In Vitro and In Vivo” (J Med Chem, 2022)
